Results: patent US12077503B2, “Substituted cyclic amides and their use as herbicides” (FMC CORPORATION, priority 2015, dated 2024)
Read-outs that look alike come from different tables or passages of the source.

Assays:
Assay type in all cases: in vivo
[1] = test system: pigweed (Amaranthus retroflexus); experiment: Test A preemergence; conditions: Amaranthus retroflexus, pre-emergence, 240 h; for pest or weed control at 125 g/ha: 125 g ai/ha; for pest or weed control at 500 g/ha: 500 g ai/ha
[2] = test system: ducksalad (Heteranthera limosa); experiment: Test B flooded paddy test; conditions: Heteranthera limosa, Flood, 250 g ai/ha, read-out: Ducksalad plant response rating
In short: (§1)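 Compound goes directly into floodwater once pots are flooded 3 cm above soil, targeting plants at two leaves; the water depth is then held for the test duration. Plants sit 13–15 d in a greenhouse and are rated visually, 100 denoting complete control.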

rice (Oryra sativa) = experiment: Test B flooded paddy test; conditions: Oryza sativa, Flood, 250 g ai/ha, read-out: Rice plant response rating
In short: as §1

[3] = test system: barnyardgrass (Echinochloa crus-galli); experiment: Test B flooded paddy test; conditions: Echinochloa crus-galli, Flood, 250 g ai/ha, read-out: Barnyardgrass plant response rating
In short: as §1

[4] = test system: sedge, umbrella (small-flower umbrella sedge, Cyperus difformis); experiment: Test B flooded paddy test; conditions: Cyperus difformis, Flood, 250 g ai/ha, read-out: Sedge, Umbrella plant response rating
In short: as §1

[5] = test system: wheat (Triticum aestivum); experiment: Test A postemergence; conditions: Triticum aestivum, post-emergence, 240 h, postemergence; for plant injury at 125 g/ha: 125 g ai/ha
In short: (§2)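 Each rating is a visual injury score from 0 to 100 given about 10 d after treatment, judged against untreated controls kept alongside in the greenhouse. In loam soil–sand blend, seeds got a preemergence directed soil spray, while postemergence plants were 2 to 10 cm tall at spraying.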

corn (Zea mays) = experiment: Test A postemergence; conditions: Zea mays, post-emergence, 240 h, postemergence; for plant injury at 125 g/ha: 125 g ai/ha
In short: as §2

[6] = test system: ragweed (common ragweed, Ambrosia elatior); experiment: Test A postemergence; conditions: Ambrosia artemisiifolia, post-emergence, 240 h, postemergence; for pest or weed control at 125 g/ha: 125 g ai/ha
In short: as §2

[7] = test system: barnyardgrass (Echinochloa crus-galli); experiment: Test A postemergence; conditions: Echinochloa crus-galli, post-emergence, 240 h, postemergence; for pest or weed control at 125 g/ha: 125 g ai/ha
In short: as §2

[8] = test system: pigweed (Amaranthus retroflexus); experiment: Test A postemergence; conditions: Amaranthus retroflexus, post-emergence, 240 h, postemergence; for pest or weed control at 125 g/ha: 125 g ai/ha
In short: as §2

[9] = test system: ryegrass, Italian (Italian ryegrass, Lolium multiflorum); experiment: Test A postemergence; conditions: Lolium multiflorum, post-emergence, 240 h, postemergence; for pest or weed control at 125 g/ha: 125 g ai/ha
In short: as §2

[10] = test system: giant foxtail (Setaria faberii); experiment: Test A postemergence; conditions: Setaria faberi, post-emergence, 240 h, postemergence; for pest or weed control at 125 g/ha: 125 g ai/ha
In short: as §2

Kochia (Kochia scoparia) = experiment: Test A postemergence; conditions: Bassia scoparia, post-emergence, 240 h, postemergence; for pest or weed control at 125 g/ha: 125 g ai/ha
In short: as §2

[11] = test system: Galium (catchweed bedstraw, Galium aparine); experiment: Test A postemergence; conditions: Galium, post-emergence, 240 h, postemergence; for pest or weed control at 125 g/ha: 125 g ai/ha
In short: as §2

[12] = test system: blackgrass (Alopecurus myosuroides); experiment: Test A postemergence; conditions: Alopecurus myosuroides, post-emergence, 240 h, postemergence; for pest or weed control at 125 g/ha: 125 g ai/ha
In short: as §2

[13] = preemergence, 0 to 100 scale where 0 is no effect and 100 is complete control, read-out: Pigweed plant response rating
[14] = Preemergence, visual injury vs untreated controls after approximately 10 d, read-out: Pigweed plant response rating (0 to 100 scale where 0 is no effect and 100 is complete control)
[15] = scale of 0 to 100 where 0 is no effect and 100 is complete control
[16] = visual injury rating after approximately 10 d, read-out: Wheat plant response rating (0 to 100 scale, 0 no effect, 100 complete control)
[17] = visual injury rating after approximately 10 d, read-out: Corn plant response rating (0 to 100 scale, 0 no effect, 100 complete control)
[18] = visual injury rating after approximately 10 d, read-out: Ragweed plant response rating (0 to 100 scale, 0 no effect, 100 complete control)
[19] = visual injury rating after approximately 10 d, read-out: Barnyardgrass plant response rating (0 to 100 scale, 0 no effect, 100 complete control)
[20] = visual injury rating after approximately 10 d, read-out: Pigweed plant response rating (0 to 100 scale, 0 no effect, 100 complete control)
[21] = visual injury rating after approximately 10 d, read-out: Ryegrass, Italian plant response rating (0 to 100 scale, 0 no effect, 100 complete control)
[22] = visual injury rating after approximately 10 d, read-out: Foxtail, Giant plant response rating (0 to 100 scale, 0 no effect, 100 complete control)
[23] = visual injury rating after approximately 10 d, read-out: Kochia plant response rating (0 to 100 scale, 0 no effect, 100 complete control)
[24] = visual injury rating after approximately 10 d, read-out: Galium plant response rating (0 to 100 scale, 0 no effect, 100 complete control)
[25] = visual injury rating after approximately 10 d, read-out: Blackgrass plant response rating (0 to 100 scale, 0 no effect, 100 complete control)
[26] = 0 to 100 scale where 0 is no effect and 100 is complete control

`Cc1c(F)cccc1NC(=O)[C@H]1C(=O)N(C)C[C@@H]1c1cc(F)c(F)c(F)c1` [Compound 867] showed a pest or weed control at 125 g/ha [1, 13] of 0%, a pest or weed control at 500 g/ha [1, 14] of 30% and a pest or weed control at 250 g/ha [2, 15] of 100%. It also gave a pest or weed control at 250 g/ha (rice (Oryra sativa); [15]) of 30%, a pest or weed control at 250 g/ha [3, 15] of 65% and a pest or weed control at 250 g/ha [4, 15] of 30%. It also gave a plant injury at 125 g/ha [5, 16] of 20%, a plant injury at 125 g/ha (corn (Zea mays); [17]) of 60% and a pest or weed control at 125 g/ha [6, 18] of 0%. The pest or weed control at 125 g/ha [7, 19] was 90%, the pest or weed control at 125 g/ha [8, 20] was 0% and the pest or weed control at 125 g/ha [9, 21] was 20%. For the same molecule, the pest or weed control at 125 g/ha [10, 22] was 80%, the pest or weed control at 125 g/ha (Kochia (Kochia scoparia); [23]) was 0% and the pest or weed control at 125 g/ha [11, 24] was 30%. The pest or weed control at 125 g/ha [12, 25] was 30%.
`CCc1cc(CC)cc([C@H]2CNC(=O)[C@@H]2C(=O)Nc2cccc(F)c2F)c1` [Compound 1139] was tested, and the pest or weed control at 125 g/ha ([1]; preemergence, 0 to 100 scale where 0 is no effect and 100 is complete control, approx. 10 d, read-out: Pigweed plant response rating) was 0%, the pest or weed control at 500 g/ha [1, 13] was 0% and the pest or weed control at 250 g/ha [2, 26] was 30%. The pest or weed control at 250 g/ha (rice (Oryra sativa); [26]) was 20%, the pest or weed control at 250 g/ha [3, 26] was 0% and the pest or weed control at 250 g/ha [4, 26] was 0%. It also gave a plant injury at 125 g/ha ([5]; visual injury on 0 to 100 scale (0 no effect, 100 complete control), approx. 10 d, read-out: Wheat plant response rating) of 50%, a plant injury at 500 g/ha ([5]; 500 g ai/ha, 0 to 100 scale, 0 is no effect, 100 is complete control, read-out: Wheat plant response rating) of 70% and a plant injury at 125 g/ha (corn (Zea mays); visual injury on 0 to 100 scale (0 no effect, 100 complete control), approx. 10 d, read-out: Corn plant response rating) of 60%. It also gave a plant injury at 500 g/ha (corn (Zea mays); 500 g ai/ha, 0 to 100 scale, 0 is no effect, 100 is complete control, read-out: Corn plant response rating) of 80%, a pest or weed control at 125 g/ha ([6]; visual injury on 0 to 100 scale (0 no effect, 100 complete control), approx. 10 d, read-out: Ragweed plant response rating) of 0% and a pest or weed control at 500 g/ha ([6]; 500 g ai/ha, 0 to 100 scale, 0 is no effect, 100 is complete control, read-out: Ragweed plant response rating) of 40%. It also gave a pest or weed control at 125 g/ha ([7]; visual injury on 0 to 100 scale (0 no effect, 100 complete control), approx. 10 d, read-out: Barnyardgrass plant response rating) of 60%, a pest or weed control at 500 g/ha ([7]; 500 g ai/ha, 0 to 100 scale, 0 is no effect, 100 is complete control, read-out: Barnyardgrass plant response rating) of 90% and a pest or weed control at 125 g/ha ([8]; visual injury on 0 to 100 scale (0 no effect, 100 complete control), approx. 10 d, read-out: Pigweed plant response rating) of 0%. For the same molecule, the pest or weed control at 500 g/ha ([8]; 500 g ai/ha, 0 to 100 scale, 0 is no effect, 100 is complete control, read-out: Pigweed plant response rating) was 0%, the pest or weed control at 125 g/ha ([9]; visual injury on 0 to 100 scale (0 no effect, 100 complete control), approx. 10 d, read-out: Ryegrass, Italian plant response rating) was 40% and the pest or weed control at 500 g/ha ([9]; 500 g ai/ha, 0 to 100 scale, 0 is no effect, 100 is complete control, read-out: Ryegrass, Italian plant response rating) was 50%. For the same molecule, the pest or weed control at 125 g/ha ([10]; visual injury on 0 to 100 scale (0 no effect, 100 complete control), approx. 10 d, read-out: Foxtail, Giant plant response rating) was 40%, the pest or weed control at 500 g/ha ([10]; 500 g ai/ha, 0 to 100 scale, 0 is no effect, 100 is complete control, read-out: Foxtail, Giant plant response rating) was 70% and the pest or weed control at 125 g/ha (Kochia (Kochia scoparia); visual injury on 0 to 100 scale (0 no effect, 100 complete control), approx. 10 d, read-out: Kochia plant response rating) was 0%. For the same molecule, the pest or weed control at 500 g/ha (Kochia (Kochia scoparia); 500 g ai/ha, 0 to 100 scale, 0 is no effect, 100 is complete control, read-out: Kochia plant response rating) was 0%, the pest or weed control at 125 g/ha ([11]; visual injury on 0 to 100 scale (0 no effect, 100 complete control), approx. 10 d, read-out: Galium plant response rating) was 50% and the pest or weed control at 500 g/ha ([11]; 500 g ai/ha, 0 to 100 scale, 0 is no effect, 100 is complete control, read-out: Galium plant response rating) was 60%. The pest or weed control at 125 g/ha ([12]; visual injury on 0 to 100 scale (0 no effect, 100 complete control), approx. 10 d, read-out: Blackgrass plant response rating) was 40% and the pest or weed control at 500 g/ha ([12]; 500 g ai/ha, 0 to 100 scale, 0 is no effect, 100 is complete control, read-out: Blackgrass plant response rating) was 60%.
`O=C1NC[C@H](c2ccc3c(c2)CCO3)[C@H]1C(=O)Nc1ccc(F)cc1F` [Compound 902] gave a pest or weed control at 125 g/ha [1, 13] of 0%, a pest or weed control at 500 g/ha [1, 14] of 0% and a pest or weed control at 250 g/ha [2, 15] of 75%. The pest or weed control at 250 g/ha (rice (Oryra sativa); [15]) was 0%, the pest or weed control at 250 g/ha [3, 15] was 0% and the pest or weed control at 250 g/ha [4, 15] was 0%. For the same molecule, the plant injury at 125 g/ha [5, 16] was 0%, the plant injury at 125 g/ha (corn (Zea mays); [17]) was 0% and the pest or weed control at 125 g/ha [6, 18] was 0%. It also gave a pest or weed control at 125 g/ha [7, 19] of 60%, a pest or weed control at 125 g/ha [8, 20] of 0% and a pest or weed control at 125 g/ha [9, 21] of 0%. It also gave a pest or weed control at 125 g/ha [10, 22] of 30%, a pest or weed control at 125 g/ha (Kochia (Kochia scoparia); [23]) of 0% and a pest or weed control at 125 g/ha [11, 24] of 0%. For the same molecule, the pest or weed control at 125 g/ha [12, 25] was 0%.
